Where two headings read alike, the source gives them in different places.
Tests used:
Recombinant human HDAC2 = Recombinant human HDAC2 (Homo sapiens, UniProt Q92769); test: In vitro HDAC enzymatic assay, HDAC2; assay type: biochemical
recombinant human HDAC8 = target: T1, recombinant human HDAC8 (Homo sapiens, UniProt Q9BY41); test: In vitro HDAC8 homogenous fluorescence assay; assay type: biochemical
T1 sequence (Q9BY41 1-377): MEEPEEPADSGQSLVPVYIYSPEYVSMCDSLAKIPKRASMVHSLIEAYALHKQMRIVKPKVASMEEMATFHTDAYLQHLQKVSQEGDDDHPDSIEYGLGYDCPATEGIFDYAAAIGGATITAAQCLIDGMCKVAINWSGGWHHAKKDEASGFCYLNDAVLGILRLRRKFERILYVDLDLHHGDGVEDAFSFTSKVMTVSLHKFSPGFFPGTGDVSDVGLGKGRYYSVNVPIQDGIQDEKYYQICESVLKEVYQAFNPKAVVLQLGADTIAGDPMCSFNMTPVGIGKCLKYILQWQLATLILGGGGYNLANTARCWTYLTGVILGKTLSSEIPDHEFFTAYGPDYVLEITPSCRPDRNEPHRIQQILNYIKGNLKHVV

HEL cells = test: Apoptosis induction, annexin-V/PI flow cytometry; assay type: cell-based, human; settings: 24 h
[1] = target: Recombinant human HDAC3/NCOR1 (Homo sapiens, UniProt O15379); test: In vitro HDAC enzymatic assay, HDAC3
Recombinant human HDAC11 = target: T2, Recombinant human HDAC11 (Homo sapiens, UniProt Q96DB2); test: In vitro HDAC11 inhibition assay; assay type: biochemical
T2 sequence (Q96DB2 1-347): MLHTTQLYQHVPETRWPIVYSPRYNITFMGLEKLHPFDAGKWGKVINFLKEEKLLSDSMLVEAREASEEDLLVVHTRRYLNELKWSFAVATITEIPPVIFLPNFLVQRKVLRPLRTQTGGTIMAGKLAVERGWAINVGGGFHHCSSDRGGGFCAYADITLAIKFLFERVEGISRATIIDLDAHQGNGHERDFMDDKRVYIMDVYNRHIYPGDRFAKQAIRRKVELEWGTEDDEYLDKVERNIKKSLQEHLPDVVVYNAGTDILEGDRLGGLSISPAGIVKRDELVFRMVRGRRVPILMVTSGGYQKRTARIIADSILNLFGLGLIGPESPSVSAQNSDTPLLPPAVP

Recombinant human HDAC6 = target: T3, Recombinant human HDAC6 (Homo sapiens, UniProt Q9UBN7); test: In vitro HDAC enzymatic assay, HDAC6; assay type: biochemical
T3 sequence (Q9UBN7 1-1215): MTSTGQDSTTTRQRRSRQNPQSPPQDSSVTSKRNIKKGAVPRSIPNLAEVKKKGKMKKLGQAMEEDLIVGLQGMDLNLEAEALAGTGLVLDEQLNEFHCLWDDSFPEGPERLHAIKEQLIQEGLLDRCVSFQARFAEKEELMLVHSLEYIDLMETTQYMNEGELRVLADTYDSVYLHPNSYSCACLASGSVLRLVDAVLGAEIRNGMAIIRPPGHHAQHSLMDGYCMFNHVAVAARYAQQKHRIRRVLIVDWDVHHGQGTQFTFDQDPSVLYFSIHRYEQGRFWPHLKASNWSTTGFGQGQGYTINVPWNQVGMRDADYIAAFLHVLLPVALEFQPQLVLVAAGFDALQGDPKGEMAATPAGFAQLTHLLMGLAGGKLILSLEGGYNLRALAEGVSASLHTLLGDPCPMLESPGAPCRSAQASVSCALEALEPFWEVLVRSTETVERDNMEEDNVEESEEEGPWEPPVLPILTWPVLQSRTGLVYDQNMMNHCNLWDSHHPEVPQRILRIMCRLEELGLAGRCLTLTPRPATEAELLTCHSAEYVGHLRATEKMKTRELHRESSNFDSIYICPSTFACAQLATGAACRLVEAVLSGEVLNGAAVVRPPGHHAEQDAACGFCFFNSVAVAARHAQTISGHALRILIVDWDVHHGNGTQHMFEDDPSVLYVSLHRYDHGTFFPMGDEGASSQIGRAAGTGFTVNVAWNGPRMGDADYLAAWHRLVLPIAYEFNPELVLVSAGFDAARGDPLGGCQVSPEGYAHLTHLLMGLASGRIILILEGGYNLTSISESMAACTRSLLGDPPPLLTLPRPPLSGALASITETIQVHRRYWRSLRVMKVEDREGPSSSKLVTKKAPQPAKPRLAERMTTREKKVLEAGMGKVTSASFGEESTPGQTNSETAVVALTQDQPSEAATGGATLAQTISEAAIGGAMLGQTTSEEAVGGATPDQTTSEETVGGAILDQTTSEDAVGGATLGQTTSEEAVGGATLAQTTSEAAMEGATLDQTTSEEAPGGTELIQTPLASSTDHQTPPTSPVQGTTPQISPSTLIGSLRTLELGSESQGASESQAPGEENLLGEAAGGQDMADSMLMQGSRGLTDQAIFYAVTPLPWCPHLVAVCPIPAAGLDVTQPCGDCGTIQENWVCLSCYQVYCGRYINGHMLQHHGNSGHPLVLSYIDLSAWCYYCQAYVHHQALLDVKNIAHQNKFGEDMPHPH

Recombinant human HDAC1 = Recombinant human HDAC1 (Homo sapiens, UniProt Q13547); test: In vitro HDAC enzymatic assay, HDAC1; assay type: biochemical
Chain of Recombinant human HDAC1 (Q13547 whole entry): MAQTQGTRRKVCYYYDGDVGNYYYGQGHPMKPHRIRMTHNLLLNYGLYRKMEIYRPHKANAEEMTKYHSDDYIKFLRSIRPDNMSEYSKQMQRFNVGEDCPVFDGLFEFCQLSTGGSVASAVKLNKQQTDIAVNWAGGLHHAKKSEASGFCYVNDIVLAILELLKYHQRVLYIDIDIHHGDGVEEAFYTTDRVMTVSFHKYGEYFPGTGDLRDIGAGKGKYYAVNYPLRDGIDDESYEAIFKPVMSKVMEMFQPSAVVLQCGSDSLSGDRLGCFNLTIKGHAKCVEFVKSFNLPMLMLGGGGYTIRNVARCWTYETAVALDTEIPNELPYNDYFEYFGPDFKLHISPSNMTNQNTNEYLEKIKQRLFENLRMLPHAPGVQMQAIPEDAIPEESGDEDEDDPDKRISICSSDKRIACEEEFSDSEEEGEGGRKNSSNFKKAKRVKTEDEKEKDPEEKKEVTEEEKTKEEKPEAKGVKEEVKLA

Chain of Recombinant human HDAC3/NCOR1 (O15379 whole entry): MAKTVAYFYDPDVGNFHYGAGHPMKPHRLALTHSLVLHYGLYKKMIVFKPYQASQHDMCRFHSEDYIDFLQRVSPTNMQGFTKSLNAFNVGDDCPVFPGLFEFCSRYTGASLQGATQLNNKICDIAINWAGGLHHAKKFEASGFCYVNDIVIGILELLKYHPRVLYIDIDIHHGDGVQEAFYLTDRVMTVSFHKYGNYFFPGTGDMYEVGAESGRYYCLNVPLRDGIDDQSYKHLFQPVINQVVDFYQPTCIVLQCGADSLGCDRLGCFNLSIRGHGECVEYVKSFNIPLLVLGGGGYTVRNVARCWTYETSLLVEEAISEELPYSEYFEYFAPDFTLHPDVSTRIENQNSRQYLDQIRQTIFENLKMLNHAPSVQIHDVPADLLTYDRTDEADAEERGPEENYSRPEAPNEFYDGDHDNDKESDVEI
Chain of Recombinant human HDAC3/NCOR1 (O75376 395-489 partner limits assumed): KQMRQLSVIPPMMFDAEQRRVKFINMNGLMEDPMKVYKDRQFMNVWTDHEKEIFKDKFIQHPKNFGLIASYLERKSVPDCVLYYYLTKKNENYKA
Chain of Recombinant human HDAC2 (Q92769 whole entry): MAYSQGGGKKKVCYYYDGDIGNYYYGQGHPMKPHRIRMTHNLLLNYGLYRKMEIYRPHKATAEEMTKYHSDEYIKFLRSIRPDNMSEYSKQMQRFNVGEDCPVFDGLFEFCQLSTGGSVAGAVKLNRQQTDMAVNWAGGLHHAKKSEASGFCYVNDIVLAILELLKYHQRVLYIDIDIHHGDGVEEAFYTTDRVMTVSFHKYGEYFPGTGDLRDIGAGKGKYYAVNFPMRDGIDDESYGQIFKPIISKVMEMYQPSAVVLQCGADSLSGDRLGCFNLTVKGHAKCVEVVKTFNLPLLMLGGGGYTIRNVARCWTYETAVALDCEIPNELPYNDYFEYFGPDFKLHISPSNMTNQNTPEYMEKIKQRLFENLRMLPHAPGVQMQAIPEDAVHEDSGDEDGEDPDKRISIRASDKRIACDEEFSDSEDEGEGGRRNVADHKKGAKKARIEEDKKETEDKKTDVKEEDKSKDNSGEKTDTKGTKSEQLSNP

| SMILES | IC50 (Recombinant human HDAC2; read-out: HDAC2 IC50, Ac-RHKK(Acetyl)-AMC substrate, 37 °C) | IC50 (recombinant human HDAC8; read-out: HDAC8 IC50, ZMAL 10.5 μM, 90 min, 37 °C) | concentration at which apoptosis induction starts (HEL cells) | IC50 ([1]; read-out: HDAC3 IC50, Ac-RHKK(Acetyl)-AMC substrate, 37 °C) | IC50 (Recombinant human HDAC11; read-out: HDAC11 IC50) | IC50 (Recombinant human HDAC6; read-out: HDAC6 IC50, Abz-SRGGK(thio-TFA)FFRR-NH2 substrate) | IC50 (Recombinant human HDAC1; read-out: HDAC1 IC50) | IC50 (Recombinant human HDAC1; read-out: HDAC1 IC50, Ac-RHKK(Acetyl)-AMC substrate, 37 °C) | IC50 (Recombinant human HDAC2) | IC50 (recombinant human HDAC8) | IC50 [1] | IC50 (Recombinant human HDAC11) | IC50 (Recombinant human HDAC6) | fold more potent inhibitor of HDAC6 than KH9 and KH16 (Recombinant human HDAC6; from Table 1 IC50 values) | IC50 (Recombinant human HDAC1; HDAC1 IC50, Ac-RHKK(Acetyl)-AMC substrate, 37 °C) | IC50 (Recombinant human HDAC1; HDAC1 IC50, as stated in text) |
| --- | --- | --- | --- | --- | --- | --- | --- | --- | --- | --- | --- | --- | --- | --- | --- | --- |
| COc1ccc(/C=C/CN2CCN(c3ncc(C(=O)NO)cn3)CC2)cc1.Cl [KH9, (E)-N-Hydroxy-2-(4-(3-(4-methoxyphenyl)allyl)piperazin-1-yl)pyrimidine-5-carboxamide Hydrchloride] | 22 ± 1 nM | 110 ± 10 nM | approximately 50 nM | 19 ± 1 nM | 1500 ± 100 nM | 140 ± 10 nM | 9 nM | 8.9 ± 0.5 nM |  |  |  |  |  |  |  |  |
| Cl.Cn1cc(CN2CCN(c3ncc(C(=O)NO)cn3)CC2)c2ccccc21 [KH29, N-hydroxy-2-(4-((1-methyl-1H-indol-3-yl)methyl)piperazin-1-yl)pyrimidine-5-carboxamide Hydrochloride] |  |  | 55 nM |  |  |  |  |  | 26 ± 1 nM | 49 ± 2 nM | 20 ± 1 nM | 1000 ± 100 nM | 25 ± 1 nM | at least 10 fold | 9.4 ± 0.5 nM | 9 nM |

Reference: article PMC11156613 (Journal of Advanced Research, 2023)
